Assay results taken from US12492208B2, “Crystal of pyrimidine compound” (TAIHO PHARMACEUTICAL CO., LTD., priority 2020, dated 2025).
Where two headings read alike, the source gives them in different places.

Columns and labels:
brain metastatic cancer = conditions: clinical tests; cited from earlier work
[1] = non-clinical tests; substrates of p-gp or Bcrp; cited from earlier work
[2] = Dynamic vapor sorption (DVS) test; type: physicochemical; conditions: for hygroscopicity determination: from mass increase under 95% relative humidity; for Weight change rate, Adsorption / Weight change rate, Desorption: 25° C.
Description: Dynamic vapor sorption tests were conducted using a type II crystal of compound (I) with1 equivalent of fumaric acid, a free-form type II crystal of the same, a free-form type I crystal of the same, a type V crystal of the same with 1 equivalent of fumaric acid, and a crystal of the same with 1 equivalent of L-tartaric acid obtained in the Examples and Reference Examples.
The dynamic vapor sorption test was conducted for measurement according to the following conditions.
Approximately 10 mg of each sample was packed in a dedicated quartz holder, and the weight of the sample at each humidity was continuously measured and recorded under the following conditions.

[3] = Blood concentration measurement test; type: in vivo, female rats (Crl:CD (SD)); conditions: rat; for AUC(0-t): read-out: AUC0-6hr
Description: Blood concentration measurement tests were conducted for the type I crystal of compound (I), the type II crystal of compound (I), and the type II crystal of compound (I) with 1 equivalent of fumarate obtained in the Examples. Specifically, 0.5% HPMC containing 0.1N hydrochloric acid was used for the type I crystal of compound (I) and 0.5% HPMC was used for the type II crystal of compound (I) and the type II crystal of compound (I) with 1 equivalent of fumaric acid to convert each crystal into the compound (I) (free-form) in terms of molecular weight so as to prepare suspensions of 100 mg/10 mL and 300 mg/10 mL. These administration solutions were orally administered to female rats (Crl:CD (SD), Charles River Laboratories Japan, Inc.) kept under feeding conditions at a volume of 10 mL/kg body weight using an oral administration sonde. After administration, the rats were returned to the rat cage and their conditions were checked. Water and feeding were freely available in the cage. At 0.5, 1, 2, 4, and 6 hours after administration, the rats were anesthetized with isoflurane, and approximately 80 μL of blood was collected from the jugular vein using a heparin-coated syringe and an injection needle (25 G).
The collected blood was ice-cooled and plasma was separated by centrifugation. After the blood collection was completed, the rats were returned to the rat cage and the state after awakening of anesthesia was checked. After the final blood collection, the depth of isoflurane anesthesia was checked. Then, the limbs were fixed in a supine position with a small animal experiment holding apparatus, and the abdomen was opened such that each rat was euthanized by exsanguination through an incision in the abdominal aorta and vena cava.
AUC0-6 hr (Area under the blood concentration-time curve for 0 to 6 hours after administration calculated by the trapezoidal method), Cmax (maximum blood concentration), and Tmax (time to reach maximum blood concentration) were calculated from the concentration of the compound (I) in each plasma measured by the MRM method using LC/MS/MS and quantified from the calibration curve using Phoenix WinNonlin (v6.4.0,Certara USA, Inc.).

Solid stability test = type: physicochemical; conditions: for Amount of related substances after storage / Chemical purity after storage / change in the powder X-ray diffraction pattern / increase in related substances: 60° C. (closed system), 4 weeks
Description: The free-form type II crystals of the compound (I) and type II crystals thereof with 1 equivalent of fumaric acid obtained in the Examples and Comparative Examples were evaluated for solid stability after storage for 4 weeks. • Storage condition: 60° C. (closed system) • Storage period: 4 weeks • Stored amount: Approximately 30 mg • Storage container: Glass bottle
Approximately 1 mg of a sample was weighed, dissolved in approximately 1 mL of a liquid mixture of water/acetonitrile (1:1), and 5 μL of this solution was accurately measured. Changes in the amount of related substances (the amount of substances detected other compound (I)) were analyzed by HPLC by the following method. Hplc Analysis Method (Stability Test)
The amount of related substances in the sample solution was measured by HPLC analysis. Handling of the apparatuses, including data processing, was in accordance with the methods and procedures instructed for each apparatus. • Column: XSelect CSH C18 (4.6×150 mm, 3.5 μm) manufactured by Waters • UV detection: 246 nm • Column temperature: 40° C. • Flow rate: 1.0 mL/min • Sample cooler: 5° C. • Sample concentration: 1 mg/mL • Mobile phase A: Liquid mixture of 5 mmol/L ammonium formate buffer (pH 6.5)/acetonitrile (9:1) • Mobile phase B: Acetonitrile

[4] = female, Crl:CD (SD), plasma, po, 100 mg/kg
[5] = oral, 300 mg/kg, listed as Type I crystal of compound (I) (with hydrochloric acid)
[6] = oral, listed as type I crystal of compound (I) with hydrochloric acid
[7] = listed as Type II crystal with 1 equivalent of fumaric acid
[8] = oral, 100 mg/kg, listed as Type II crystal of compound (I) with 1 equivalent of fumaric acid
[9] = oral, 300 mg/kg, listed as Type II crystal of compound (I) with 1 equivalent of fumaric acid

CS(=O)(=O)CCNCc1ccc(-c2ccc3ncnc(Nc4ccc(OCc5cccc(F)c5)c(Cl)c4)c3c2)o1 [Lapatinib]
effects against brain metastatic cancer (brain metastatic cancer): sufficient effects of these agents could not be obtained
brain penetration properties [1]: limited

C=CC(=O)N1C[C@H](n2c(C#CC3CC3)c(C(=O)N[C@H](C)c3ccccc3)c3c(N)ncnc32)C[C@@H]1C [crystal of compound (I) with 1 equivalent of L-tartaric acid] [7-((3R,5S)-1-acryloyl-5-methylpyrrolidin-3-yl)-4-amino-6-(cyclopropylethynyl)-N—((R)-1-phenylethyl)-7H-pyrrolo[2,3-d]pyrimidine-5-carboxamide]
hygroscopicity determination [2]: highly hygroscopic
Weight change rate, Adsorption ([2]; relative humidity 5%): 0.50%
Weight change rate, Desorption ([2]; relative humidity 5%): 0.54%
Weight change rate, Adsorption ([2]; relative humidity 20%): 1.05%
Weight change rate, Desorption ([2]; relative humidity 20%): 1.16%
Weight change rate, Adsorption ([2]; relative humidity 40%): 1.60%
Weight change rate, Desorption ([2]; relative humidity 40%): 1.67%
Weight change rate, Adsorption ([2]; relative humidity 60%): 2.16%
Weight change rate, Desorption ([2]; relative humidity 60%): 2.38%
Weight change rate, Adsorption ([2]; relative humidity 80%): 3.26%
Weight change rate, Desorption ([2]; relative humidity 80%): 3.64%
Weight change rate, Adsorption ([2]; relative humidity 95%): 6.41%
Weight change rate, Desorption ([2]; relative humidity 95%): 6.41%

C=CC(=O)N1C[C@H](n2c(C#CC3CC3)c(C(=O)N[C@H](C)c3ccccc3)c3c(N)ncnc32)C[C@@H]1C [free-form type I crystal of compound (I), 7-((3R,5S)-1-acryloyl-5-methylpyrrolidin-3-yl)-4-amino-6-(cyclopropylethynyl)-N—((R)-1-phenylethyl)-7H-pyrrolo[2,3-d]pyrimidine-5-carboxamide]
hygroscopicity determination [2]: almost non-hygroscopic
Weight change rate, Adsorption ([2]; relative humidity 5%): 0.01%
Weight change rate, Desorption ([2]; relative humidity 5%): 0.01%
Weight change rate, Adsorption ([2]; relative humidity 20%): 0.04%
Weight change rate, Desorption ([2]; relative humidity 20%): 0.04%
Weight change rate, Adsorption ([2]; relative humidity 40%): 0.10%
Weight change rate, Desorption ([2]; relative humidity 40%): 0.13%
Weight change rate, Adsorption ([2]; relative humidity 60%): 0.26%
Weight change rate, Desorption ([2]; relative humidity 60%): 0.60%
Weight change rate, Adsorption ([2]; relative humidity 80%): 0.50%
Weight change rate, Desorption ([2]; relative humidity 80%): 0.69%
Weight change rate, Desorption ([2]; relative humidity 95%): 0.72%
Cmax [3, 4]: 2670 nM
AUC(0-t) [3, 4]: 7.42 µM·h
Tmax ([3]; female, Crl:CD (SD), plasma, po, 100 mg/kg, read-out: Tmax): 0.75 h
AUC(0-t) ([3]; female, Crl:CD (SD), plasma, po, 300 mg/kg): 7.11 µM·h
Cmax [3, 5]: 2250 nM
Tmax [3, 5]: 3.25 h
AUC 0-6 hr increase when the dose was increased from 100 mg/kg to 300 mg/kg [3, 6]: 1.0 times
Cmax increase when the dose was increased from 100 mg/kg to 300 mg/kg [3, 6]: 0.8 times

C=CC(=O)N1C[C@H](n2c(C#CC3CC3)c(C(=O)N[C@H](C)c3ccccc3)c3c(N)ncnc32)C[C@@H]1C [free-form type II crystal of compound (I)] [7-((3R,5S)-1-acryloyl-5-methylpyrrolidin-3-yl)-4-amino-6-(cyclopropylethynyl)-N—((R)-1-phenylethyl)-7H-pyrrolo[2,3-d]pyrimidine-5-carboxamide]
hygroscopicity determination [2]: almost non-hygroscopic
Weight change rate, Adsorption ([2]; relative humidity 5%): 0.01%
Weight change rate, Desorption ([2]; relative humidity 5%): 0.01%
Weight change rate, Adsorption ([2]; relative humidity 20%): 0.02%
Weight change rate, Desorption ([2]; relative humidity 20%): 0.03%
Weight change rate, Adsorption ([2]; relative humidity 40%): 0.05%
Weight change rate, Desorption ([2]; relative humidity 40%): 0.06%
Weight change rate, Adsorption ([2]; relative humidity 60%): 0.08%
Weight change rate, Desorption ([2]; relative humidity 60%): 0.08%
Weight change rate, Adsorption ([2]; relative humidity 80%): 0.10%
Weight change rate, Desorption ([2]; relative humidity 80%): 0.11%
Weight change rate, Desorption ([2]; relative humidity 95%): 0.12%
Amount of related substances after storage (Solid stability test): 0.12%
Chemical purity after storage (Solid stability test): 99.88%
change in the powder X-ray diffraction pattern (Solid stability test): no change
increase in related substances (Solid stability test): almost no increase
Amount of related substances before storage (Solid stability test): 0.13%
Chemical purity before storage (Solid stability test): 99.87%
AUC 0-6 hr increase when the dose was increased from 100 mg/kg to 300 mg/kg ([3]; oral): 1.5 times
Cmax increase when the dose was increased from 100 mg/kg to 300 mg/kg ([3]; oral): 1.2 times
AUC0-6hr ([3]; oral, 100 mg/kg): 5.79 µM·h
Cmax ([3]; oral, 100 mg/kg): 1880 nM
Tmax ([3]; oral, 100 mg/kg): 1.50 h
AUC0-6hr ([3]; oral, 300 mg/kg): 8.53 µM·h
Cmax ([3]; oral, 300 mg/kg): 2250 nM
Tmax ([3]; oral, 300 mg/kg): 3.33 h

C=CC(=O)N1C[C@H](n2c(C#CC3CC3)c(C(=O)N[C@H](C)c3ccccc3)c3c(N)ncnc32)C[C@@H]1C [type II crystal of compound (I) with 1 equivalent of fumaric] [7-((3R,5S)-1-acryloyl-5-methylpyrrolidin-3-yl)-4-amino-6-(cyclopropylethynyl)-N—((R)-1-phenylethyl)-7H-pyrrolo[2,3-d]pyrimidine-5-carboxamide]
hygroscopicity determination [2]: almost non-hygroscopic
Weight change rate, Adsorption ([2]; relative humidity 5%): 0.01%
Weight change rate, Desorption ([2]; relative humidity 5%): 0.04%
Weight change rate, Adsorption ([2]; relative humidity 20%): 0.11%
Weight change rate, Desorption ([2]; relative humidity 20%): 0.13%
Weight change rate, Adsorption ([2]; relative humidity 40%): 0.18%
Weight change rate, Desorption ([2]; relative humidity 40%): 0.20%
Weight change rate, Adsorption ([2]; relative humidity 60%): 0.27%
Weight change rate, Desorption ([2]; relative humidity 60%): 0.30%
Weight change rate, Adsorption ([2]; relative humidity 80%): 0.34%
Weight change rate, Desorption ([2]; relative humidity 80%): 0.34%
Weight change rate, Adsorption ([2]; relative humidity 95%): 0.38%
Weight change rate, Desorption ([2]; relative humidity 95%): 0.38%
change in the powder X-ray diffraction pattern (Solid stability test): no change
increase in related substances (Solid stability test): almost no increase
Amount of related substances after storage (Solid stability test; [7]): 0.15%
Chemical purity after storage (Solid stability test; [7]): 99.85%
Amount of related substances before storage (Solid stability test; [7]): 0.15%
Chemical purity before storage (Solid stability test; [7]): 99.85%
AUC 0-6 hr increase when the dose was increased from 100 mg/kg to 300 mg/kg ([3]; oral): 1.9 times
Cmax increase when the dose was increased from 100 mg/kg to 300 mg/kg ([3]; oral): 1.9 times
AUC0-6hr [3, 8]: 6.14 µM·h
Cmax [3, 8]: 2740 nM
Tmax [3, 8]: 1.25 h
AUC0-6 hr relative to the value of the type I crystal of compound (I) with the acid ([3]; oral, 300 mg/kg): 2.4 times
AUC0-6 hr relative to the value of the type II crystal of compound (I) ([3]; oral, 300 mg/kg): 2.4 times
Cmax relative to the value of the type I crystal of compound (I) with the acid ([3]; oral, 300 mg/kg): 1.7 times
Cmax relative to the value of the type II crystal of compound (I) ([3]; oral, 300 mg/kg): 1.4 times
AUC0-6hr [3, 9]: 11.9 µM·h
Cmax [3, 9]: 5340 nM
Tmax [3, 9]: 0.5 h

C=CC(=O)N1C[C@H](n2c(C#CC3CC3)c(C(=O)N[C@H](C)c3ccccc3)c3c(N)ncnc32)C[C@@H]1C [type V crystal of compound (I) with 1 equivalent of fumaric ] [7-((3R,5S)-1-acryloyl-5-methylpyrrolidin-3-yl)-4-amino-6-(cyclopropylethynyl)-N—((R)-1-phenylethyl)-7H-pyrrolo[2,3-d]pyrimidine-5-carboxamide]
hygroscopicity determination [2]: almost non-hygroscopic
Weight change rate, Adsorption ([2]; relative humidity 5%): 0.01%
Weight change rate, Desorption ([2]; relative humidity 5%): 0.06%
Weight change rate, Adsorption ([2]; relative humidity 20%): 0.11%
Weight change rate, Desorption ([2]; relative humidity 20%): 0.16%
Weight change rate, Adsorption ([2]; relative humidity 40%): 0.21%
Weight change rate, Desorption ([2]; relative humidity 40%): 0.27%
Weight change rate, Adsorption ([2]; relative humidity 60%): 0.33%
Weight change rate, Desorption ([2]; relative humidity 60%): 0.39%
Weight change rate, Adsorption ([2]; relative humidity 80%): 0.47%
Weight change rate, Desorption ([2]; relative humidity 80%): 0.51%
Weight change rate, Desorption ([2]; relative humidity 95%): 0.59%
